Where two headings read alike, the source gives them in different places.
Legend:
Experiment in all cases: Antibacterial and antifungal activity, paper disc method
Format in all cases: cell-based
[1] = system: Penicillium citrinum IFO-7784
Procedure: (§1) Antibacterial and antifungal activity tests for various bacteria and fungi were conducted. The tests were carried out by the conventional paper disc method. That is, a paper disc (d=8 mm) was dipped in aqueous or methanol solution of the compound of the present invention (concentration : 1,000 µg/ml), then dried and used.
(§2) As bacteria to be tested, • ① Staphylococcus aureus IFO-12732 [hereinafter abbreviated to Sta.] • ② Bacillus subtilis IFO-13719 [Bac.] • ③ Escherichia coli IFO-3301 [Esc.] were used. As yeast to be tested, • ④ Saccharomyces cerevisiae IFO-0210 [Sac.] • ⑤ Candida albicans IFO-0583 [Can.] were used. As fungi to be tested, • ⑥ Aspergillus niger IFO-4407 [Asp.] • ⑦ Penicillium citrinum IFO-7784 [Pen.] • ⑧ Tyromyces palustris IFO-30339 [Tyr.] • ⑨ Coriolus versicolor IFO-30340 [Cor.] were used. Among the above fungi, Tyr. and Cor. are wood rot fungi.
(§3) As the test media, agar media shown below were used. That is, TSA (Trypticase Soy Agar) medium was used for Sta., Bac. and Esc.; YNB (Yeast Nitrogen Base) agar medium was used for Sac. and Can.; SDA (Sabouraud Dextrose Agar) medium was used for Asp. and Pen.; and PDA (Potato Dextrose Agar) medium was used for Try. and Cor.
(§4) The determination of antibacterial and antifungal effectiveness was carried out by measuring the diameter of the growth inhibition circle generated on the circumference of the paper disc. The indication of effectiveness is given as follows: -: no growth inhibition circle was observed. +: diameter of the growth inhibition circle was 9 - 20 mm ++: diameter of the growth inhibition circle was 21 - 40 mm +++: diameter of the growth inhibition circle was 41 mm or more

[2] = system: Staphylococcus aureus IFO-12732
Procedure: as §1, §2, §3, §4

[3] = system: Escherichia coli IFO-3301; conditions: for zone of inhibition at 1000 µg/mL: Escherichia coli
Procedure: as §1, §2, §3, §4

[4] = system: Saccharomyces cerevisiae IFO-0210
Procedure: as §1, §2, §3, §4

[5] = system: Candida albicans IFO-0583
Procedure: as §1, §2, §3, §4

[6] = system: Aspergillus niger IFO-4407
Procedure: as §1, §2, §3, §4

[7] = system: Tyromyces palustris IFO-30339; conditions: read-out: diameter of the growth inhibition circle, Tyr.(IFO-30339)
Procedure: as §1, §2, §3, §4

[8] = system: Bacillus subtilis IFO-13719; conditions: Bacillus subtilis
Procedure: as §1, §2, §3, §4

[9] = system: Coriolus versicolor IFO-30340; conditions: Trametes versicolor
Procedure: as §1, §2, §3, §4

[10] = IFO7784, paper disc d=8 mm dipped in 1,000 µg/ml solution, SDA medium, read-out: diameter of the growth inhibition circle, Pen.(IFO-7784)
[11] = IFO12732, paper disc d=8 mm dipped in 1,000 µg/ml solution, TSA medium, read-out: diameter of the growth inhibition circle, Sta.(IFO-12732)
[12] = IFO3301, paper disc d=8 mm dipped in 1,000 µg/ml solution, TSA medium, read-out: diameter of the growth inhibition circle, Esc.(IFO-3301)
[13] = IFO0210, paper disc d=8 mm dipped in 1,000 µg/ml solution, YNB agar medium, read-out: diameter of the growth inhibition circle, Sac.(IFO-0210)
[14] = IFO0583, paper disc d=8 mm dipped in 1,000 µg/ml solution, YNB agar medium, read-out: diameter of the growth inhibition circle, Can.(IFO-0583)
[15] = IFO4407, paper disc d=8 mm dipped in 1,000 µg/ml solution, SDA medium, read-out: diameter of the growth inhibition circle, Asp.(IFO-4407)
[16] = paper disc d=8 mm dipped in 1,000 µg/ml solution, PDA medium
[17] = IFO13719, paper disc d=8 mm dipped in 1,000 µg/ml solution, TSA medium, read-out: diameter of the growth inhibition circle, Bac.(IFO-13719)
[18] = IFO30340, paper disc d=8 mm dipped in 1,000 µg/ml solution, PDA medium, read-out: diameter of the growth inhibition circle, Cor.(IFO-30340)
[19] = paper disc d=8 mm dipped in 1,000 µg/ml solution, TSA medium

SMILES | zone of inhibition at 1000 µg/mL [1, 10] [mm] | zone of inhibition at 1000 µg/mL [2, 11] [mm] | zone of inhibition at 1000 µg/mL [3, 12] [mm] | zone of inhibition at 1000 µg/mL [4, 13] [mm] | zone of inhibition at 1000 µg/mL [5, 14] [mm] | zone of inhibition at 1000 µg/mL [6, 15] [mm] | zone of inhibition at 1000 µg/mL [7, 16] [mm] | zone of inhibition at 1000 µg/mL [8, 17] [mm] | zone of inhibition at 1000 µg/mL [9, 18] [mm] | diameter of the growth inhibition circle, Esc.(IFO-3301) [3, 19] | zone of inhibition at 1000 µg/mL ([1]; IFO7784, read-out: diameter of the growth inhibition circle, Pen.(IFO-7784)) [mm] | zone of inhibition at 1000 µg/mL ([2]; IFO12732, read-out: diameter of the growth inhibition circle, Sta.(IFO-12732)) [mm] | zone of inhibition at 1000 µg/mL ([3]; IFO3301, read-out: diameter of the growth inhibition circle, Esc.(IFO-3301)) [mm] | zone of inhibition at 1000 µg/mL ([4]; IFO0210, read-out: diameter of the growth inhibition circle, Sac.(IFO-0210)) [mm] | zone of inhibition at 1000 µg/mL ([5]; IFO0583, read-out: diameter of the growth inhibition circle, Can.(IFO-0583)) [mm] | zone of inhibition at 1000 µg/mL ([6]; IFO4407, read-out: diameter of the growth inhibition circle, Asp.(IFO-4407)) [mm] | zone of inhibition at 1000 µg/mL [7] [mm] | zone of inhibition at 1000 µg/mL ([8]; IFO13719, read-out: diameter of the growth inhibition circle, Bac.(IFO-13719)) [mm] | zone of inhibition at 1000 µg/mL ([9]; IFO30340, read-out: diameter of the growth inhibition circle, Cor.(IFO-30340)) [mm]
O=C(C#CI)Nc1cccc(Cl)c1 [Example 3, N-(3-Chlorophenyl)-3-iodopropiolamide] | > 41 | 21 to 40 | 9 to 20 | 21 to 40 | 21 to 40 | 21 to 40 | > 41 | 21 to 40 | > 41 |  |  |  |  |  |  |  |  |  | 
O=C(C#CI)NCCc1ccccc1 [Example 16, N-(2-Phenylethyl)-3-iodopropiolamide] | > 41 | 21 to 40 | 9 to 20 | > 41 | 21 to 40 | 21 to 40 | > 41 | 21 to 40 | > 41 |  |  |  |  |  |  |  |  |  | 
O=C(C#CI)Nc1cccc(F)c1 [Example 17, N-(3-Fluorophenyl)-3-iodopropiolamide] | > 41 | 21 to 40 | 9 to 20 | 21 to 40 | 21 to 40 | 21 to 40 | > 41 | 21 to 40 | > 41 |  |  |  |  |  |  |  |  |  | 
CCCCN(CCCC)C(=O)C#CI [Example 18, N,N-Di(n-butyl)-3-iodopropiolamide] | > 41 | 21 to 40 |  | 21 to 40 | 21 to 40 | 21 to 40 | > 41 | 9 to 20 | > 41 | - |  |  |  |  |  |  |  |  | 
O=C(C#CI)N1CCCCC1 [Example 19, 1-(3-Iodopropioloyl)piperidine] | > 41 | 21 to 40 | 9 to 20 | 21 to 40 | 21 to 40 | 21 to 40 | > 41 | 21 to 40 | > 41 |  |  |  |  |  |  |  |  |  | 
CC1COCC(C)N1C(=O)C#CI (stereo not drawn) [Example 20, 4-(3-Iodopropioloyl)-3,5-dimethylmorpholine] | > 41 | 21 to 40 |  | 21 to 40 | 9 to 20 | 21 to 40 | > 41 | 9 to 20 | > 41 | - |  |  |  |  |  |  |  |  | 
O=C(C#CI)N1CCN(c2ccccc2)CC1 [Example 21, 1-(3-Iodopropioloyl)-4-phenylpiperazine] | > 41 | 21 to 40 |  | 21 to 40 | 21 to 40 | 21 to 40 | > 41 | 9 to 20 | > 41 | - |  |  |  |  |  |  |  |  | 
O=C(C#CI)NC1CCCCC1 [Example 22, N-Cyclohexyl-3-iodopropiolamide] | > 41 | 21 to 40 | 9 to 20 | 21 to 40 | 21 to 40 | 21 to 40 | > 41 | 9 to 20 | > 41 |  |  |  |  |  |  |  |  |  | 
C=CCNC(=O)C#CI [Example 23, N-Allyl-3-iodopropiolamide] |  |  |  |  |  |  |  |  |  |  | > 41 | 21 to 40 | 9 to 20 | 21 to 40 | 21 to 40 | 21 to 40 | > 41 | 9 to 20 | > 41
O=C(C#CI)Nc1ccc(Cl)cc1 [Example 24, N-(4-Chlorophenyl)-3-iodopropiolamide] | > 41 | 21 to 40 | 9 to 20 | 21 to 40 | 21 to 40 | 21 to 40 | > 41 | 9 to 20 | > 41 |  |  |  |  |  |  |  |  |  | 
O=C(C#CI)Nc1ccc(Cl)cc1Cl [Example 25, N-(2,4-Dichlorophenyl)-3-iodopropiolamide] | > 41 | 21 to 40 | 9 to 20 | 21 to 40 | 21 to 40 | 21 to 40 | > 41 | 9 to 20 | > 41 |  |  |  |  |  |  |  |  |  | 
O=C(C#CI)Nc1cccc(C(F)(F)F)c1 [Example 26, N-(3-Trifluoromethylphenyl)-3-iodopropiolamide] | > 41 | 21 to 40 | 9 to 20 | 21 to 40 | 21 to 40 | 21 to 40 | 21 to 40 | 9 to 20 | > 41 |  |  |  |  |  |  |  |  |  | 
